Structures can show the parent of a compound that is named as a salt.
Each molecule was assayed against hD2 recombinant receptor (human dopamine receptor type 2, long variant, CHO-Gα16-hD2L membranes) (Homo sapiens (Human), UniProt P14416) (assay: biochemical). Conditions: not given.

SMILES	Ki [nM]
Cn1c(SCCCN2CC[C@]3(C[C@@H]3c3ccc(C(F)(F)F)cc3)C2)nnc1-c1ccnc(C(N)=O)c1 (single isomer, unassigned) [Example 191]	513
Cn1c(SCCCN2CC[C@]3(C[C@@H]3c3ccc(C(F)(F)F)cc3)C2)nnc1-c1ccc2[nH]cnc2n1 (single isomer, unassigned) [Example 272]	95.5
Cn1c(SCCCN2CC[C@]3(C[C@@H]3c3ccc(C(F)(F)F)cc3)C2)nnc1-c1ccn2cnnc2c1 (single isomer, unassigned) [Example 269]	1000
Cn1c(SCCCN2CC[C@]3(C[C@@H]3c3ccc(C(F)(F)F)cc3)C2)nnc1-c1ccc(C(N)=O)cn1 (single isomer, unassigned) [Example 189, dihydrochloride]	437
Cc1nccnc1-c1nnc(SCCCN2CC[C@]3(C[C@@H]3c3ccc(C(F)(F)F)cc3)C2)n1C (single isomer, unassigned) [Example 227, hydrochloride]	575
Cn1c(SCCCN2CC[C@]3(C[C@@H]3c3ccc(C(F)(F)F)cc3F)C2)nnc1-c1ccc(C(N)=O)nc1 (single isomer, unassigned) [Example 185]	1230
Cn1c(SCCCN2CC[C@]3(C[C@@H]3c3ccc(C(F)(F)F)cc3)C2)nnc1-c1ccc(-n2cnnc2)cc1 (single isomer, unassigned) [Example 276]	166

Continued, values first:

Ki [nM]	SMILES
1150	Cc1ncoc1-c1nnc(CCCCN2CC[C@]3(C[C@@H]3c3ccc(C(F)(F)F)cc3)C2)n1C (single isomer, unassigned) [Example 302, hydrochloride]
251	Cn1c(SCCCN2CC[C@]3(C[C@@H]3c3ccc(C(F)(F)F)cc3)C2)nnc1N1CCOCC1 (single isomer, unassigned) [Example 118, hydrochloride]

What follows are molecules tested against T1, hD2 recombinant receptor (human dopamine receptor type 2, long variant, CHO-Gα16-hD2L cells) (Homo sapiens (Human), UniProt P14416) (assay: cell-based). Conditions: D2 fpKi, functional pKi; antagonism of dopamine EC80 calcium response (FLIPR).

Ki [nM]	SMILES
41.7	Cn1c(SCCCN2CC[C@]3(C[C@@H]3c3ccc(C(F)(F)F)cc3)C2)nnc1N1CCOCC1 (single isomer, unassigned) [Example 118, hydrochloride]

These molecules were tested against T1, hD2 recombinant receptor (human dopamine receptor type 2, long variant, CHO-Gα16-hD2L cells) (assay: not given). Conditions: functional pKi; antagonism of dopamine EC80 calcium response (FLIPR).

D2 fpKi	SMILES
<5	Cn1c(OCCCN2CC[C@@]3(C[C@@H]3c3ccc(C(F)(F)F)cc3)C2)nnc1C1CCOCC1 (single isomer, unassigned) [Example 305, (1R,3R or 1S,3S)-5-(3-{[4-methyl-5-(oxan-4-yl)-4H-1,2,4-triazol-3-yl]oxy}-propyl)-1-[4-(trifluoromethyl)phenyl]-5-azaspiro[2.4]heptane]
8.26	Cc1ncoc1-c1nnc(SCCCN2CCC[C@]3(C[C@H]3c3ccc(C(F)(F)F)cc3)C2)n1C (single isomer, unassigned) [Example 312, (1S,3R or 1R,3S)-5-(3-{[4-methyl-5-(4-methyl-1,3-oxazol-5-yl)-4H-1,2,4-triazol-3-yl]sulfanyl}propyl)-1-[4-(trifluoromethyl)phenyl]-5-azaspiro[2.5]octane]
<5	Cc1ncoc1-c1nnc(SCCCN2CC[C@]3(CC[C@H]3c3ccccc3)C2)n1C (single isomer, unassigned) [Example 318, (1R,4S or 1S,4R or 1S,4S or 1R,4R)-6-(3-{[4-methyl-5-(4-methyl-1,3-oxazol-5-yl)-4H-1,2,4-triazol-3-yl]sulfanyl}propyl)-1-phenyl-6-azaspiro[3.4]octane]
<5	Cn1c(OCCCN2CC[C@]3(C[C@H]3c3ccc(C(F)(F)F)cc3)C2)nnc1C1CCOCC1 (single isomer, unassigned) [Example 304, (1S,3S or 1R,3R)-5-(3-{[4-methyl-5-(oxan-4-yl)-4H-1,2,4-triazol-3-yl]oxy}propyl)-1-[4-(trifluoromethyl)phenyl]-5-azaspiro[2.4]heptane]
<5	Cc1ncoc1-c1nnc(SCCCN2CCC[C@@]3(C[C@H]3c3ccc(C(F)(F)F)cc3)C2)n1C (single isomer, unassigned) [Example 314, (1S,3S or 1R,3R)-5-(3-{[4-methyl-5-(4-methyl-1,3-oxazol-5-yl)-4H-1,2,4-triazol-3-yl]sulfanyl}propyl)-1-[4-(trifluoromethyl)phenyl]-5-azaspiro[2.5]octane]

— US10239870B2, “Dopamine D3 receptor antagonists” (priority 2014, dated 2019)
